Columns and labels:
[1] = xn = mol fraction of the nth substance listed; settings: 81.5 kPa, Liquid, Vibrating tube method
[2] = refractive index (Na D-line) (dimensionless); xn = mol fraction of the nth substance listed; settings: 81.5 kPa, Liquid, Standard Abbe refractometry

ClCCCl [1,2-dichloroethane] + c1ccccc1
Settings	mass density, 293.15 K [kg/m3]	mass density, 303.15 K [kg/m3]	mass density, 313.15 K [kg/m3]	mass density, 323.15 K [kg/m3]	mass density, 333.15 K [kg/m3]	refractive index, 293.15 K	refractive index, 303.15 K	refractive index, 313.15 K	refractive index, 323.15 K	refractive index, 333.15 K
[1], x1 = 0.1002	911.76	900.68	889.51	878.27	866.86	–	–	–	–	–
[1], x1 = 0.207	947.74	936.23	924.62	912.92	901.08	–	–	–	–	–
[1], x1 = 0.3043	981.38	969.5	957.49	945.42	933.17	–	–	–	–	–
[1], x1 = 0.4032	1016.56	1004.31	991.92	979.41	966.77	–	–	–	–	–
[1], x1 = 0.5005	1052.14	1039.52	1026.72	1013.82	1000.75	–	–	–	–	–
[1], x1 = 0.5975	1088.72	1075.72	1062.52	1049.18	1035.66	–	–	–	–	–
[1], x1 = 0.7235	1137.85	1124.32	1110.59	1096.67	1082.64	–	–	–	–	–
[1], x1 = 0.8005	1168.91	1155.04	1140.95	1126.76	1112.37	–	–	–	–	–
[1], x1 = 0.8918	1206.83	1192.59	1178.02	1163.49	1148.78	–	–	–	–	–
[1], x1 = 1	1252.82	1238.27	1223.53	1208.61	1193.61	–	–	–	–	–
[2], x1 = 0.1002	–	–	–	–	–	1.49506	1.48919	1.48273	1.477	1.47091
[2], x1 = 0.207	–	–	–	–	–	1.48849	1.48273	1.47644	1.4708	1.46486
[2], x1 = 0.3043	–	–	–	–	–	1.48263	1.47694	1.47079	1.46522	1.45939
[2], x1 = 0.4032	–	–	–	–	–	1.47684	1.47123	1.46522	1.45971	1.45398
[2], x1 = 0.5005	–	–	–	–	–	1.47135	1.46581	1.45994	1.45449	1.44884
[2], x1 = 0.5975	–	–	–	–	–	1.46605	1.46058	1.45484	1.44943	1.44387
[2], x1 = 0.7235	–	–	–	–	–	1.45935	1.45396	1.44838	1.44302	1.43756
[2], x1 = 0.8005	–	–	–	–	–	1.45531	1.44995	1.44445	1.43912	1.43372
[2], x1 = 0.8918	–	–	–	–	–	1.4505	1.44519	1.43979	1.43449	1.42916
[2], x1 = 1	–	–	–	–	–	1.44472	1.43948	1.43423	1.42897	1.42373

From the NIST ThermoML archive (doi:10.1016/j.jct.2015.12.027)
